Columns and labels:
Conditions in all cases: Compound concentration 1000.0 nM
[1] = molecular target: Tyrosine-protein kinase JAK1 (Homo sapiens) (UniProt P23458)
[2] = molecular target: Serine/threonine-protein kinase SBK1 (Homo sapiens) (UniProt Q52WX2)
[3] = molecular target: T1, Mitogen-activated protein kinase kinase kinase 5 (Homo sapiens) (UniProt Q99683)
T1 sequence (whole entry): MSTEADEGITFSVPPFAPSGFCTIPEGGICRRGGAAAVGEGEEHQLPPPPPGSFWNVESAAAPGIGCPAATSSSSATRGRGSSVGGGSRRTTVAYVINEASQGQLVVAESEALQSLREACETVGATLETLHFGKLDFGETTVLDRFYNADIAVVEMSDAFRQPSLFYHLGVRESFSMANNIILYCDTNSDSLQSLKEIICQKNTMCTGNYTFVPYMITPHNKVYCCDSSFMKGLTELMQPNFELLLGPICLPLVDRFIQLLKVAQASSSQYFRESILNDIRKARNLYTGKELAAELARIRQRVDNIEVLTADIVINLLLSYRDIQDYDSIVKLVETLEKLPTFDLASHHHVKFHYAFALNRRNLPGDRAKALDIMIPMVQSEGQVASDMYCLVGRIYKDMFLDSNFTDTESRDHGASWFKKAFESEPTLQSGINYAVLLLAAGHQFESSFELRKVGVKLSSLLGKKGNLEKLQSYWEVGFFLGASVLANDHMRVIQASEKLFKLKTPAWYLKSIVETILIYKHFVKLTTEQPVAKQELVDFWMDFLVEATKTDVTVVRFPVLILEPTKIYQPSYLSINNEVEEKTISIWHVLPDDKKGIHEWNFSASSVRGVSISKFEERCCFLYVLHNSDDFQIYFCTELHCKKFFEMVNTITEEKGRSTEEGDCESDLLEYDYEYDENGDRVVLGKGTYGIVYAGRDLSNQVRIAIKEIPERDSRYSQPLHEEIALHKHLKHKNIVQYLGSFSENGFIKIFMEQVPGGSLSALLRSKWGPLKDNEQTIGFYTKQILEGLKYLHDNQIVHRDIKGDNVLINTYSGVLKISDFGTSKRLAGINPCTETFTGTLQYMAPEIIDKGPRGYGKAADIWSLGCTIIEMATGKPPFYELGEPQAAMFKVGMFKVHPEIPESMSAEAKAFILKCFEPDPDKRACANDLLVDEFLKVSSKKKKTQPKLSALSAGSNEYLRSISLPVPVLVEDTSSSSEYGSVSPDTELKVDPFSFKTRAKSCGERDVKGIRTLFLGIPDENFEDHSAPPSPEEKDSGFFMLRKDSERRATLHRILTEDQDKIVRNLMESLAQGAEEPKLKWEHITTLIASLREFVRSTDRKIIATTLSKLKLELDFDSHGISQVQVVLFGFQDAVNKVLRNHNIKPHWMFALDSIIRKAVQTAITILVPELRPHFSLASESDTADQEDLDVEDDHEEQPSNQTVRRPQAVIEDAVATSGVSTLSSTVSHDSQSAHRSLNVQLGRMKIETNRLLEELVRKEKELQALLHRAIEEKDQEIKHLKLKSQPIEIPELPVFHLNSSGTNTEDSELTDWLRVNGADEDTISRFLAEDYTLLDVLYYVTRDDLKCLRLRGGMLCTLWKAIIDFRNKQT

[4] = molecular target: T2, Serine/threonine-protein kinase TAO2 (Homo sapiens) (UniProt Q9UL54)
T2 sequence (whole entry): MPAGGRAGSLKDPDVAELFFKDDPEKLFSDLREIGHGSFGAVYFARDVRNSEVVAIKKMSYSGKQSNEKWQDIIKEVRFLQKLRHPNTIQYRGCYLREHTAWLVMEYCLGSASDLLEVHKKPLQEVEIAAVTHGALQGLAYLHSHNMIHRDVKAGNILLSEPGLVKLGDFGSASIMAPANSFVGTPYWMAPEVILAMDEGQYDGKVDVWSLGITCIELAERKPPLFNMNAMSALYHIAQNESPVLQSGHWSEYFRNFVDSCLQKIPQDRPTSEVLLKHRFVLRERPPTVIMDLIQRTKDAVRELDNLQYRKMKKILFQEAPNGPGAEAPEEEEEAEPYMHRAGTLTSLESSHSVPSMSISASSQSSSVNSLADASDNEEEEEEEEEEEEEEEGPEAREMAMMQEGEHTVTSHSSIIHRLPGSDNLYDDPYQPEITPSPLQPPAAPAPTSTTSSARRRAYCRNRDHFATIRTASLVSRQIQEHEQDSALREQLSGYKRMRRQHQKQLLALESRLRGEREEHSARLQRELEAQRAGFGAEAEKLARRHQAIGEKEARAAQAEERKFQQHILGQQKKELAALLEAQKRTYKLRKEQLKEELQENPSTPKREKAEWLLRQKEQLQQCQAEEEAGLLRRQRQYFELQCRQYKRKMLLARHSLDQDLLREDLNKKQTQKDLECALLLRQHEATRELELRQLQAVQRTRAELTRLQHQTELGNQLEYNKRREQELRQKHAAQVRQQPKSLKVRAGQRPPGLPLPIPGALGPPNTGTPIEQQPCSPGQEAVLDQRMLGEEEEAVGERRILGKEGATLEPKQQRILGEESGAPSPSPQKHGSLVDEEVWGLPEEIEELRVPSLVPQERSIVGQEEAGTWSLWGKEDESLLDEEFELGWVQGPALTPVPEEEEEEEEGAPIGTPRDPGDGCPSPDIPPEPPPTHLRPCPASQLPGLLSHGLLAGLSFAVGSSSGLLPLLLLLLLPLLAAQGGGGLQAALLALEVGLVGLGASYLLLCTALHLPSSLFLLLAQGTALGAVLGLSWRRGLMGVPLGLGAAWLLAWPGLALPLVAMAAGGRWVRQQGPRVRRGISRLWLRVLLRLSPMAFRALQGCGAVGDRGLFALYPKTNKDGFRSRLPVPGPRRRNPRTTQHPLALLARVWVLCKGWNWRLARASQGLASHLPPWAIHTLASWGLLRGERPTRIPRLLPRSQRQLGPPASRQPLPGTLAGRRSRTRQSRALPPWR

Chain of Tyrosine-protein kinase JAK1 (Homo sapiens) (P23458 whole entry): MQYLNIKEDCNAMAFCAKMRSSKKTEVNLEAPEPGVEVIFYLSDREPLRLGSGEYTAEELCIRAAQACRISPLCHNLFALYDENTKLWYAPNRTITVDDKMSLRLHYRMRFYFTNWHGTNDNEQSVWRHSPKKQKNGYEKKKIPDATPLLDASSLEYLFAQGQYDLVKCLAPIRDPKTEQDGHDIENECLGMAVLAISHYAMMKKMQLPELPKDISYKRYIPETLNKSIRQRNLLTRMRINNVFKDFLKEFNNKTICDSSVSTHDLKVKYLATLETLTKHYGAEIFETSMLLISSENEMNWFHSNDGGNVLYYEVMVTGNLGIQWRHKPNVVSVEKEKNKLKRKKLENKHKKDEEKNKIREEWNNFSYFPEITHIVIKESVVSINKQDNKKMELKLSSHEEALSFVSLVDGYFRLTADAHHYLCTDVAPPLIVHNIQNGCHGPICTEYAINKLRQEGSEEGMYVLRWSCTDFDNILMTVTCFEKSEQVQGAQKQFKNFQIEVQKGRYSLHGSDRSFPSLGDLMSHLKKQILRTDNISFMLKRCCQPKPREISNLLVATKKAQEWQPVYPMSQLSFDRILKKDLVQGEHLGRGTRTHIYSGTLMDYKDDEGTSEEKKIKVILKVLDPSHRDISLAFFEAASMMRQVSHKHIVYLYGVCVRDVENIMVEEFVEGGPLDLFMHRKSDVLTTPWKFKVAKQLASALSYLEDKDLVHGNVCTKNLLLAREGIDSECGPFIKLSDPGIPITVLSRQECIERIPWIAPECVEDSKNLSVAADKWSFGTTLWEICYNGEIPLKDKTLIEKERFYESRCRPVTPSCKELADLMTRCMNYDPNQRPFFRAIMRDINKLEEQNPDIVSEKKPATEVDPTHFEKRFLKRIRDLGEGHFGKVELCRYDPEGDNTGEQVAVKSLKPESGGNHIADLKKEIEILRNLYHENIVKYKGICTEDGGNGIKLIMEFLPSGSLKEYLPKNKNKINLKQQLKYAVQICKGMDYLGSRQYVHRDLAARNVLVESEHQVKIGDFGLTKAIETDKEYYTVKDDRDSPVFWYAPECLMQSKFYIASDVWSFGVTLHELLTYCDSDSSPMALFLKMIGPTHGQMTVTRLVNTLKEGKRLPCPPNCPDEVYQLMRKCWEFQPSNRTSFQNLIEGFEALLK
Chain of Serine/threonine-protein kinase SBK1 (Homo sapiens) (Q52WX2 whole entry): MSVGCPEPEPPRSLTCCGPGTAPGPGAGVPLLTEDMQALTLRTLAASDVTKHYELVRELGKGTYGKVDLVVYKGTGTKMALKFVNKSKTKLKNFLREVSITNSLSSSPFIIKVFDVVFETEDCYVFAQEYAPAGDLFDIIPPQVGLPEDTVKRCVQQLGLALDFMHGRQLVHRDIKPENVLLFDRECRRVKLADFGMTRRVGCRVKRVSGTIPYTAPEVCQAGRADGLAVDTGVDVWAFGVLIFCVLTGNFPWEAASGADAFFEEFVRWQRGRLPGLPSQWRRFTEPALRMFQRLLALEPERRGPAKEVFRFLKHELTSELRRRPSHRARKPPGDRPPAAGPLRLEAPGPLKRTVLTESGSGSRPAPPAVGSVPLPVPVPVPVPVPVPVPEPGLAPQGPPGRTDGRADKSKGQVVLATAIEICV

| Compound | residual activity [1] | residual activity [2] | residual activity [3] | residual activity [4] |
| --- | --- | --- | --- | --- |
| CN(C)C(=O)Cn1cc(-c2nc(C3(c4ccc(-c5cnc(N)nc5)cc4)CC3)no2)cn1 [BI 0153] | 100% | 83% | 91% | 100% |
| CN(C)C(=O)Cn1cc(-c2nc([C@@](C)(c3ccc(-c4cnc(N)nc4)cc3)C3CC3)no2)cn1 [BI 665915] | 33% | 87% | 99% | 81% |
